We go through 15 compounds from ChEMBL document CHEMBL5053504, “Potent Inhibition of HIF1α and p300 Interaction by a Constrained Peptide Derived from CITED2” (J Med Chem, 2021).

Active and inactive are the calls of the source. The calls are words filed in the database; no cut-off is given here. Where a SMILES comes first, the peptide text is derived from it.

Data set [1] relates to HeLa. Nature of the data set: Cytotoxicity against human HeLa cells assessed as cell membrane disruption measured after 4 hrs under hypoxia condition by LDH assay. It is filed as functional, cell-based.
For data set [2], the target named is T1, CREB-binding protein/Histone acetyltransferase p300 (Homo sapiens, UniProt Q09472+Q92793). The data set is described as follows: Binding affinity to His-tagged human CH1 domain of p300 (323 to 423 residues)expressed in Escherichia coli Rosetta (DE3)/CBP (unknown origin) by fluorescence polarization assay. In general terms: In fluorescence polarisation assays a small probe gives low polarisation when free and higher when bound to something large.
T1 sequence (Q09472 whole entry, looked up, the tested form may be a part): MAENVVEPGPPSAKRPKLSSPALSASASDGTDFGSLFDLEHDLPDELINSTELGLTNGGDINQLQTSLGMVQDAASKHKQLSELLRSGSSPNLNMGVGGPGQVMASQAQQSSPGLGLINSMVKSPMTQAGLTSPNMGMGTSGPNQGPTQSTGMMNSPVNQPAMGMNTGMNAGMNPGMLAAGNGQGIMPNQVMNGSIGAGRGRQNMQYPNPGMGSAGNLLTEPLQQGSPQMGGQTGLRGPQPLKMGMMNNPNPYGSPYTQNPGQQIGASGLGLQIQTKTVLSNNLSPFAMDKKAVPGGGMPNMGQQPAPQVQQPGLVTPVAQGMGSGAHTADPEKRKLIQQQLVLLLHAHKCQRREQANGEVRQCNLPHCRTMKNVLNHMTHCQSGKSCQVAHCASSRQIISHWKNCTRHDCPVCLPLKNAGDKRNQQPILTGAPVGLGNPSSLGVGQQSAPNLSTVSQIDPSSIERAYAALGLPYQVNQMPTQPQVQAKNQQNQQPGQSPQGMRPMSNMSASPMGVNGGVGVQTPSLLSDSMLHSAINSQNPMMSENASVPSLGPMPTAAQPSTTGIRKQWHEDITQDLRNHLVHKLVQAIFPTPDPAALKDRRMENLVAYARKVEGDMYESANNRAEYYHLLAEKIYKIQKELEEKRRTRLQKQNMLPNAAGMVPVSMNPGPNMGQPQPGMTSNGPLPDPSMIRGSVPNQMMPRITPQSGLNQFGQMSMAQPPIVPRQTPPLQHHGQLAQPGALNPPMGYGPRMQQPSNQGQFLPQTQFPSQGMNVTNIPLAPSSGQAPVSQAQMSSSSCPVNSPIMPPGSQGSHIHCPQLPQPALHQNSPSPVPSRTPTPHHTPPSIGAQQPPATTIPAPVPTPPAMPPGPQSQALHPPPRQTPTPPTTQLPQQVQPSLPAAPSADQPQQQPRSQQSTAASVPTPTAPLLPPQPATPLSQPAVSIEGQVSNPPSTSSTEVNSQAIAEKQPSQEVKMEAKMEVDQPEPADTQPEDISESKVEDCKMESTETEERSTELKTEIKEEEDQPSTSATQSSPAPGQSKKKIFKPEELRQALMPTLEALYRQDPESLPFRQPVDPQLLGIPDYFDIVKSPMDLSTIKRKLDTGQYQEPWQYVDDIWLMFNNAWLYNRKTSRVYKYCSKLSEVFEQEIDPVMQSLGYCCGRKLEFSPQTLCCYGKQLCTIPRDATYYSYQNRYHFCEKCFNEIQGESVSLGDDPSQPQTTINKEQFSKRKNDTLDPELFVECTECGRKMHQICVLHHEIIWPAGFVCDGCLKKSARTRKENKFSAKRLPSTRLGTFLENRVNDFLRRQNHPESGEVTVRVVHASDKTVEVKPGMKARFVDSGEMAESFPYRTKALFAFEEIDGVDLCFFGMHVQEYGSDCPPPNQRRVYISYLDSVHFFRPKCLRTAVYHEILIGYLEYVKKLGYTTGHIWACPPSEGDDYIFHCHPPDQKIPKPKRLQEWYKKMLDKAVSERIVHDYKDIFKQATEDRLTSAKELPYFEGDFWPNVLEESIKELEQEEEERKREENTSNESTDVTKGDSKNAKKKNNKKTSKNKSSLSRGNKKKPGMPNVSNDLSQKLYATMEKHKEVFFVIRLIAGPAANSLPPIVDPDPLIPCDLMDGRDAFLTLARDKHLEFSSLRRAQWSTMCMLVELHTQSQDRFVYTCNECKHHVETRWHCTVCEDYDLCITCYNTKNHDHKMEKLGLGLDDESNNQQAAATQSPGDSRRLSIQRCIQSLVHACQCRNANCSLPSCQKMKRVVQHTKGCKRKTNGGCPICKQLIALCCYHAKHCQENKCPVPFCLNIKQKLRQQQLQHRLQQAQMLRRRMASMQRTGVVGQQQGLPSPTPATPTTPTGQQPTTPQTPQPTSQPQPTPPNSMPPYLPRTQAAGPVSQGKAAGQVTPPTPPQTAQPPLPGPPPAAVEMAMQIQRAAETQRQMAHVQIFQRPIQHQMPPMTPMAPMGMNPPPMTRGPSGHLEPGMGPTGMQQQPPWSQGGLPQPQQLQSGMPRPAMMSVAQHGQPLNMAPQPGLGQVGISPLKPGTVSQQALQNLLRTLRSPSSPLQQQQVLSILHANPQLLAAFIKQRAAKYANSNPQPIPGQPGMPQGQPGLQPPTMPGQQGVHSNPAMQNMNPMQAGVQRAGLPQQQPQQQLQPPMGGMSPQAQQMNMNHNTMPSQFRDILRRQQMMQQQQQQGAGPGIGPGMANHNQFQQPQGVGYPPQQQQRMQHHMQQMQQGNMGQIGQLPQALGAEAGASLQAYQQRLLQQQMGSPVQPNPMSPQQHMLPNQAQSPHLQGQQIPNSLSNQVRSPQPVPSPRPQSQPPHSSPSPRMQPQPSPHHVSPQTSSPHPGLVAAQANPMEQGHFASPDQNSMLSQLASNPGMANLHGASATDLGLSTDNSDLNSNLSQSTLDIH
T1 sequence (Q92793 whole entry, looked up, the tested form may be a part): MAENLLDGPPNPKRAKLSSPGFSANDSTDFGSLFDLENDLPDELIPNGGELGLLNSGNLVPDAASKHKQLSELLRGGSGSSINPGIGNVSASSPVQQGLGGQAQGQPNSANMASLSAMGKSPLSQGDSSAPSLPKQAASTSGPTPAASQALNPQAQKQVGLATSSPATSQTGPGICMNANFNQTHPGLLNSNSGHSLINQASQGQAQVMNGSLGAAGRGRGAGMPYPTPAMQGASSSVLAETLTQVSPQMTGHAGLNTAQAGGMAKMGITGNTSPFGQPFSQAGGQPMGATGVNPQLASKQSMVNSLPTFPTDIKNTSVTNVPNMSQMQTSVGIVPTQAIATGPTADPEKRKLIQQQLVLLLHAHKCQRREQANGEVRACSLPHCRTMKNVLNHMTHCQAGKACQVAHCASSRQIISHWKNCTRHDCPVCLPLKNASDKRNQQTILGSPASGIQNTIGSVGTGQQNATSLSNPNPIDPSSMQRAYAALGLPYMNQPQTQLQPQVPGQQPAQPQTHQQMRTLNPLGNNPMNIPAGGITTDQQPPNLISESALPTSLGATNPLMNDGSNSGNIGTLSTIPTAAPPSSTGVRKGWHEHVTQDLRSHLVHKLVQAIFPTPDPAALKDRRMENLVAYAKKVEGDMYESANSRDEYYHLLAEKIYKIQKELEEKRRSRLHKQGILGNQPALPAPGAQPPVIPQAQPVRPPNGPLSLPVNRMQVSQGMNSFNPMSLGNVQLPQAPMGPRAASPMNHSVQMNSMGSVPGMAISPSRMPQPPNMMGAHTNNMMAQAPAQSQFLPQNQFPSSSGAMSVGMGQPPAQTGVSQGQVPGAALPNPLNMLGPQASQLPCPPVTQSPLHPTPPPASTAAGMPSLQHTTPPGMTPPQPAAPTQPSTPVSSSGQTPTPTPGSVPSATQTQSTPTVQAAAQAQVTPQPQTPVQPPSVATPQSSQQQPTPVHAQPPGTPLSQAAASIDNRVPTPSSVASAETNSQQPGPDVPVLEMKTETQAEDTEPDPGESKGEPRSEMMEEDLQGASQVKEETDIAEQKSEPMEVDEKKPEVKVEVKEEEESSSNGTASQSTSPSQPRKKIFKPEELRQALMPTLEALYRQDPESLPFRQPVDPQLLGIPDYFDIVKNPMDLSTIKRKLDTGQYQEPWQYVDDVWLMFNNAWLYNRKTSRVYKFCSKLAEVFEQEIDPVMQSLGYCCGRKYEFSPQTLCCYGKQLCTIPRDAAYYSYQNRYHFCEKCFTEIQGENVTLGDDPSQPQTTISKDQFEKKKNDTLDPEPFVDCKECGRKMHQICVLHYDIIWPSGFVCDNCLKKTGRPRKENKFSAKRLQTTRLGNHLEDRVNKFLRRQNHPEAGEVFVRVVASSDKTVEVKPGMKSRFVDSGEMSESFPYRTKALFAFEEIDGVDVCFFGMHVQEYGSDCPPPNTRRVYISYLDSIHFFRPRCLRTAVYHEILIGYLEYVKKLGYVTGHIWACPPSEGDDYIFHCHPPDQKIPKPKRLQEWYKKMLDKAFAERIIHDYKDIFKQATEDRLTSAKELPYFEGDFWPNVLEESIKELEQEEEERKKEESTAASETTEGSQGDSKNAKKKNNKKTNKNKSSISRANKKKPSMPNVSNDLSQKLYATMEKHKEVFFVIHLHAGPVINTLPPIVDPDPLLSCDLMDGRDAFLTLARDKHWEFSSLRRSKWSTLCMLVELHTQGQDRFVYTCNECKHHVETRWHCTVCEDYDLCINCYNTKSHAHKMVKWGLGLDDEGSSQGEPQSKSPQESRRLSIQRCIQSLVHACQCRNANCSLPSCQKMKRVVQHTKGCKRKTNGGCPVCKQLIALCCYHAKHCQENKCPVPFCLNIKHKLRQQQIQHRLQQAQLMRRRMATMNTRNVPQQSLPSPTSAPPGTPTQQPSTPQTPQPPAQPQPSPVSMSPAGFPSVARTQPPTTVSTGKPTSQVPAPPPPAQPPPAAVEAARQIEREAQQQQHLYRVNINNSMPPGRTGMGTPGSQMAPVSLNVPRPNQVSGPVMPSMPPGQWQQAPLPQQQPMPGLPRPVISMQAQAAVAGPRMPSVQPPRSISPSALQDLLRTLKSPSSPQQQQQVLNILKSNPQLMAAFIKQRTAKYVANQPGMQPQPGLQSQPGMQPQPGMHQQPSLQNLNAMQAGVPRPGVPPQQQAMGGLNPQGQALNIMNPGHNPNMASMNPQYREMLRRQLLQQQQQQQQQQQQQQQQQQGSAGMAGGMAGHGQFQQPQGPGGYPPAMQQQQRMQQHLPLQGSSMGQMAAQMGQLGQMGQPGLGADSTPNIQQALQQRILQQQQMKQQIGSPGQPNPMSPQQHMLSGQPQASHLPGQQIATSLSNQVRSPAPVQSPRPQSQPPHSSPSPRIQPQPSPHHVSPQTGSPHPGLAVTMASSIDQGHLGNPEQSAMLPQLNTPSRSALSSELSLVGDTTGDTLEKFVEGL

Data set [3] in a line: Stability of the compound in mouse serum by LC/MS analysis. In kind it is ADME, cell-free.
Data set [4] has as its target T1, CREB-binding protein/Histone acetyltransferase p300. Nature of the data set: Binding affinity to p300/CBP in hypoxia-induced human HeLa cells assessed as p300/CBP pull down at 25 uM measured after 12 hrs pulldown-based Western blot analysis. (In general: In western blotting, separated proteins are transferred to a membrane and probed.)
Data set [5] can be described thus: Drug uptake in human HeLa cells measured after 4 hrs by tryphan blue staining based flow cytometry. In kind it is ADME, cell-based. In general terms: Flow cytometry measures light scatter and fluorescence of single cells or particles in a stream.
Data set [6] concerns HeLa. The data set is described as follows: Downregulation of VEGF protein expression in human HeLa cells at 25 uM measured after 24 hrs under hypoxia condition by Western blot analysis. In kind it is functional, cell-based.
Data set [7] has as its system HeLa. Nature of the data set: Downregulation of HK1 protein expression in human HeLa cells at 25 uM measured after 24 hrs under hypoxia condition by Western blot analysis. It is filed as functional, cell-based.
Data set [8] deals with HeLa. Nature of the data set: Cytotoxicity against human HeLa cells assessed as cell growth inhibition measured after 24 hrs by MTT assay. In kind it is functional, cell-based.
The target of data set [9] is T2, HIF1A/p300/CREB-binding protein (Homo sapiens) (UniProt Q09472+Q16665+Q92793). Nature of the data set: Inhibition of hypoxia-induced HIF1alpha/P300-CBP interaction mediated gene transcriptional activity in human HeLa cells co-transfected with luciferase reporter plasmid containing HRE and pRL-CMV vector at 25 uM incubated for 24 hrs under hypoxic condition by HRE-dependent dual luciferase reporter gene assay. In kind it is cell-based.

The subject of data set [10] is HeLa. The data set is described as follows: Downregulation of HK1 mRNA expression in human HeLa cells at 25 uM measured after 24 hrs under hypoxia condition by RT-PCR analysis. It is filed as functional, cell-based.
In data set [11] the test system is HeLa. The data set is described as follows: Cytotoxicity against human HeLa cells assessed as reduction in cell viability measured after 24 hrs under hypoxia condition by MTT assay. It is filed as functional, cell-based.
Data set [12] has as its system HeLa. The data set is described as follows: Downregulation of GLUT1 protein expression in human HeLa cells at 25 uM measured after 24 hrs under hypoxia condition by Western blot analysis. It is filed as functional, cell-based.
The subject of data set [13] is HeLa. The data set is described as follows: Downregulation of VEGF mRNA expression in human HeLa cells at 25 uM measured after 24 hrs under hypoxia condition by RT-PCR analysis. It is filed as functional, cell-based.
Data set [14] has as its target T2, HIF1A/p300/CREB-binding protein (Homo sapiens). Nature of the data set: Inhibition of HA-tagged CTAD (786 to 826 residues) HIF1alpha/Flag-tagged P300 CH1 domain (323 to 423 residues)/CBP (unknown origin) interaction expressed in HEK293T cells measured after 24 hrs by co-iimunoprecipitation assay. In kind it is cell-based.
The subject of the next data set is MDA-MB-231. The data set is described as follows: Cytotoxicity against human MDA-MB-231 cells assessed as cell growth inhibition measured after 24 hrs by MTT assay. In kind it is functional, cell-based.
The test system of another data set is A549. The data set is described as follows: Cytotoxicity against human A549 cells assessed as cell growth inhibition measured after 24 hrs by MTT assay. In kind it is functional, cell-based.
The subject of data set [15] is HeLa. The data set is described as follows: Downregulation of GLUT1 mRNA expression in human HeLa cells at 25 uM measured after 24 hrs under hypoxia condition by RT-PCR analysis. It is filed as functional, cell-based.
The target in data set [16] is T2, HIF1A/p300/CREB-binding protein (Homo sapiens). The data set is described as follows: Inhibition of hypoxia-induced HIF1alpha/P300-CBP interaction in human HeLa cells at 10 uM measured after 24 hrs by co-immunoprecipiation assay. It is filed as cell-based.

What is called Kd is the constant that tells how readily two partners part at equilibrium. Low readings indicate tighter binding, high ones weaker binding. With H-DEEILWSLVIEMGLDRIKELPEL-OH, the outcome in the data set on HeLa [1] was Active. In data set [2], this compound returned a Kd of 32 nM.
Consider H-DEEILMSLVIEMGLDRWKELPEL-OH, for which the Stability entry in data set [3] was “Stable”. Besides, the outcome (in the data set on HeLa [1]; in data set [4]) was Active. In [2], this compound had a Kd of 22.3 nM.
As to H-DEEVLMSLVIEMGLDRIKELPEL-OH, in data set [2], the Kd is on record as 37.1 nM.
H-DEEVLWSLVIEMGLDRIKELPEL-OH: the Drug uptake result in [5] is listed as “Active”.
Turning to H-GLDRIKELPELWLG-OH, in data set [2], the Kd is listed as 1544 nM.
Regarding H-DEEILMSLVIEMGLDRIKELPEL-OH, in [5], the Drug uptake result is given as “Active”.
In data set [2], H-DEEILWSLVIEMGLDRWKELPEL-OH gave a Kd of 29.5 nM.
H-DEEVLWSLVIEMGLDRWKELPEL-OH yielded a Kd in data set [2] of 36.2 nM.
Compound `CC[C@H](C)[C@H](NC(=O)[C@H](CCCNC(=N)N)NC(=O)[C@H](CC(=O)O)NC(=O)[C@H](CC(C)C)NC(=O)CNC(=O)[C@H](CCSC)NC(=O)[C@H](CCC(=O)O)NC(=O)[C@@H](NC(=O)[C@@H](NC(=O)[C@H](CC(C)C)NC(=O)[C@H](CO)NC(=O)[C@H](CCSC)NC(=O)[C@H](CC(C)C)NC(=O)[C@@H](NC(=O)[C@H]1CNC(=O)[C@@H](N)CC(=O)N[C@@H](CC(=O)O)C(=O)N[C@@H](CCC(=O)O)C(=O)N1)C(C)C)C(C)C)[C@@H](C)CC)C(=O)N[C@@H](CCCCN)C(=O)N[C@@H](CCC(=O)O)C(=O)N[C@@H](CC(C)C)C(=O)N1CCC[C@H]1C(=O)N[C@@H](CCC(=O)O)C(=O)N[C@@H](CC(C)C)C(N)=O` showed a Kd in [2] of 33.7 nM.
As to H-QNEFDFMTDF-OH, in [2], the Kd is on record as 312.5 nM.
Regarding `CC[C@H](C)[C@H](NC(=O)[C@@H]1CNC(=O)[C@@H](N)CC(=O)N[C@@H](CC(=O)O)C(=O)N[C@@H](CCC(=O)O)C(=O)N1)C(=O)N[C@@H](CC(C)C)C(=O)N[C@@H](CCSC)C(=O)N[C@@H](CO)C(=O)N[C@@H](CC(C)C)C(=O)N[C@H](C(=O)N[C@H](C(=O)N[C@@H](CCC(=O)O)C(=O)N[C@@H](CCSC)C(=O)NCC(=O)N[C@@H](CC(C)C)C(=O)N[C@@H](CC(=O)O)C(=O)N[C@@H](CCCNC(=N)N)C(=O)N[C@@H](Cc1c[nH]c2ccccc12)C(=O)N[C@@H](CCCCN)C(=O)N[C@@H](CCC(=O)O)C(=O)N[C@@H](CC(C)C)C(=O)N1CCC[C@H]1C(=O)N[C@@H](CCC(=O)O)C(=O)N[C@@H](CC(C)C)C(N)=O)[C@@H](C)CC)C(C)C` (HELM PEPTIDE1{D.E.[O=C([C@H](CN[*:3])N[*:1])[*:2]].I.L.M.S.L.V.I.E.M.G.L.D.R.W.K.E.L.P.E.L.[am]}|CHEM1{[N[C@@H](CC(=O)[*:1])C(=O)[*:2]]}$PEPTIDE1,CHEM1,1:R1-1:R1|PEPTIDE1,CHEM1,3:R3-1:R2$$$V2.0), the outcome (in the data set on HeLa [6]; with HeLa [7]; with HeLa [10]; in data set [4]; in the data set with HeLa [12]; in the data set on HeLa [13]) was Active. For the same compound, the outcome with A549 and in the data set on HeLa [15] was Active. Moreover, the “growth inhibition (GI)” value in the data set on HeLa [8], with HeLa [11] and with MDA-MB-231 was “Active” in each case. Also, the inhibition result in data set [9], in [14] and in data set [16] was “Active” each time. Moreover, the Stability entry in [3] is “Stable”. In addition, the Kd in data set [2] is listed as 21.4 nM.
Compound H-DEEVLMSLVIEM-OH displayed a Kd in data set [2] of 228.2 nM.
The same measure, in the same setting: the figure for H-LPELWLGQNEFDFMTDF-OH is 226 nM.
For the compound H-DEEVLMSLVIEMGLDRWKELPEL-OH, the Drug uptake result in [5] was “Active”.
Regarding “H-DEEVLMSLVIEMGLDRIKELPELWLGQNEFDFMTDF-OH”, the equilibrium dissociation constant (Kd) in [2] is on record as 17.7 nM.
